From US20100111867A1, “CARBORANE-PHOSPHONIUM COMPOUNDS AND THEIR USE IN BORON NEUTRON CAPTURE THERAPY AND IMAGING” (THE UNIVERSITY OF SYDNEY, priority 2007, published 2010)

Assays:
[1] = tested on: SF268 (human glioblastoma) cell line; assay: Preliminary in vitro cytotoxicity screening against SF268 cell line; assay type: cell-based
Description: In contrast to the 1,12-carborane derivative 4, the 1,2- and 1,7-isomers undergo a deboronation reaction in polar solvents to afford the corresponding zwitterionic nido-carborane phosphonium species.

[2] = Deboronation of closo-carborane phosphonium salts in polar solvents; assay type: physicochemical; conditions: polar solvents such as DMSO
Description: The deboronation reaction was not observed for 4, which contains 1,12-carborane. The inventors hypothesise that 4 is highly resistant to the deboronation reaction because no boron atoms within the cluster are bonded to two adjacent and electronegative carbon atoms. The facile deboronation of closo-1,2-carborane under mild, non-basic conditions is known with alcohols, water and acids (E. Svantesson, J. Pettersson, Å. Olin, K. Markides, S. Sjöberg, Acta Chem. Scand., 1999, 53, 731. V. A. Ol'shevskaya, R. Ayuob, Z. G. Brechko, P. V. Petrovskii, E. G. Kononova, G. L. Levit, V. P. Krasnov, V. N. Charushin, O. N. Chupakhin, V. N. Kalinin, J. Organomet. Chem., 2005, 690, 2761. Y.-J. Lee, J.-D. Lee, J. Ko, S.-H. Kim, S. O. Kang, Chem. Commun., 2003, 1364) and has also been observed when functional groups located α- to the cage are electron-withdrawing and the compounds are exposed to polar solvents containing small amounts of H2O or MeOH (J. J. Schaeck, S. B. Kahl, Inorg. Chem., 1999, 38, 204). In the present case, the deboronation reactions occur in polar solutions such as dry DMF and thus most likely proceed by nucleophilic attack of the iodide counter-ion on the most electrophilic boron atoms in the cage, i.e. B3 (or B6) for 1,2-carborane and B2 (or B3) for 1,7-carborane.

`C[P+](c1ccccc1)(c1ccccc1)c1ccccc1` [TPMP, triphenylmethylphosphonium, reference compound] gave a GI50 [1] of 12.5 µM.
With “methyldiphenyl(1,7-dicarba-closo-dodecaboranyl)phosphonium iodide [Compound 6]” the “deboronation reaction to nido-carborane zwitterion” value (shortened to “deboronation reaction”) [2] was “spontaneously deboronate”.
For “methyldiphenyl(1,2-dicarba-closo-dodecaboranyl)phosphonium iodide [Compound 5]”, the “deboronation reaction” value [2] was “spontaneously deboronate”.
In the case of “methyldiphenyl(1,12-dicarba-closo-dodecaboranyl)phosphonium iodide [Compound 4]”, the “deboronation reaction” value [2] is reported as “not observed” and the GI50 [1] is reported as greater than 40 µM.
